# Measured values taken from ChEMBL document CHEMBL1909046, “DrugMatrix in vitro pharmacology data”.
# Assays:
# [1] = molecular target: T1, Progesterone receptor (Bos taurus, UniProt Q690N0); experiment: DRUGMATRIX: Progesterone radioligand binding (ligand: [3H] R-5020); format: tissue-based, Uterus; conditions: Not Active = under 50% inhibition at 10 µM
# T1 sequence (Q690N0 whole entry): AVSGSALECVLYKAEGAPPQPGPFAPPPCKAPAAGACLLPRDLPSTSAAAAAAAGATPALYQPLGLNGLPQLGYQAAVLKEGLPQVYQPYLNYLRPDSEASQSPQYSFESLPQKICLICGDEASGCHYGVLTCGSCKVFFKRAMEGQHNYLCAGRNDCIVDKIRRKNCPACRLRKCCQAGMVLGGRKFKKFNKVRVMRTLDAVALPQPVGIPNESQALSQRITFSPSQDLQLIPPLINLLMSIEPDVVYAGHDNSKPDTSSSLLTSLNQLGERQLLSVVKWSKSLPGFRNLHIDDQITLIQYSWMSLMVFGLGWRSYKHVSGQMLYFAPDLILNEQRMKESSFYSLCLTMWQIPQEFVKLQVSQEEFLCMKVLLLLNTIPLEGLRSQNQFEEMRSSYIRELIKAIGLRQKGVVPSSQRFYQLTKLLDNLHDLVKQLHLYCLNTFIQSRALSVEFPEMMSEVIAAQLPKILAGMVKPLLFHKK
# [2] = molecular target: T2, Glucocorticoid receptor (Homo sapiens, UniProt P04150); conditions: hela s3; further: in other assays of this panel Not Active means under 50% inhibition at 10 µM
# T2 sequence (P04150 whole entry): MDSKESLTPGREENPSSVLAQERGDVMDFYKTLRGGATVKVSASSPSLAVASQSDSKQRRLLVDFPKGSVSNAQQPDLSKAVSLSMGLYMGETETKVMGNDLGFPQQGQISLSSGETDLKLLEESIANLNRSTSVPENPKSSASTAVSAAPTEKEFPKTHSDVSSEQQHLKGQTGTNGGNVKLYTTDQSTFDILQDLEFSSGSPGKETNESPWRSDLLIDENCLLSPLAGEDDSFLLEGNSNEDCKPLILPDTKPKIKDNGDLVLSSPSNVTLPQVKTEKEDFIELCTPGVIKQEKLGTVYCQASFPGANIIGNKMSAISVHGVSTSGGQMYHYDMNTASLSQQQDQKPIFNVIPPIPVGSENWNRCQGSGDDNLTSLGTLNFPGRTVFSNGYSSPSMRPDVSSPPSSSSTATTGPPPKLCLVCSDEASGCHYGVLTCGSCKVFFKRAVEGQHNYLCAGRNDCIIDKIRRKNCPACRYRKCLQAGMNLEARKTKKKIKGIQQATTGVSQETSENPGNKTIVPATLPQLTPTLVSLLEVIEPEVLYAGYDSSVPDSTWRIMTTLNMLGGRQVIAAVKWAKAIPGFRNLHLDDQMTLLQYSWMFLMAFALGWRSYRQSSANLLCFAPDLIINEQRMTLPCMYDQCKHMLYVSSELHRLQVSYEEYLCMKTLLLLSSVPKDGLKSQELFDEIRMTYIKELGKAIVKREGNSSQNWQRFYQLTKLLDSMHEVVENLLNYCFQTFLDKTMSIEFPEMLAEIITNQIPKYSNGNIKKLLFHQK
# [3] = molecular target: Kappa-type opioid receptor (Homo sapiens, UniProt P41145); experiment: DRUGMATRIX: Opiate kappa (OP2, KOP) radioligand binding (ligand: [3H] Diprenorphine); format: cell membranes, HEK293, Membrane; conditions: Not Active = under 50% inhibition at 10 µM
# Kappa-type opioid receptor, sequence (P41145 whole entry): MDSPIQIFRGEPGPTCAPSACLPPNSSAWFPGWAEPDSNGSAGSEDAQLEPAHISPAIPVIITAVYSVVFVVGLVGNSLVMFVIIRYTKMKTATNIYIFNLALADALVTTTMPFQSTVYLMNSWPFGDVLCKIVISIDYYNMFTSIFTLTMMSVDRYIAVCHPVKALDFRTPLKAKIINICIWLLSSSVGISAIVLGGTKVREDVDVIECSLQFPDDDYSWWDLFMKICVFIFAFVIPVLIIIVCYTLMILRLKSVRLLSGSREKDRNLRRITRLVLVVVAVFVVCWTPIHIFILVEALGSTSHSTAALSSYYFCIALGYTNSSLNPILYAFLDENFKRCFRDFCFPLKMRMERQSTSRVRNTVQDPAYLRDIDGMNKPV
# [4] = molecular target: Cytochrome P450 2E1 (Homo sapiens, UniProt P05181); conditions: bti-tn-5b1-4; further: in other assays of this panel Not Active means under 50% inhibition at 10 µM
# Cytochrome P450 2E1, sequence (P05181 whole entry): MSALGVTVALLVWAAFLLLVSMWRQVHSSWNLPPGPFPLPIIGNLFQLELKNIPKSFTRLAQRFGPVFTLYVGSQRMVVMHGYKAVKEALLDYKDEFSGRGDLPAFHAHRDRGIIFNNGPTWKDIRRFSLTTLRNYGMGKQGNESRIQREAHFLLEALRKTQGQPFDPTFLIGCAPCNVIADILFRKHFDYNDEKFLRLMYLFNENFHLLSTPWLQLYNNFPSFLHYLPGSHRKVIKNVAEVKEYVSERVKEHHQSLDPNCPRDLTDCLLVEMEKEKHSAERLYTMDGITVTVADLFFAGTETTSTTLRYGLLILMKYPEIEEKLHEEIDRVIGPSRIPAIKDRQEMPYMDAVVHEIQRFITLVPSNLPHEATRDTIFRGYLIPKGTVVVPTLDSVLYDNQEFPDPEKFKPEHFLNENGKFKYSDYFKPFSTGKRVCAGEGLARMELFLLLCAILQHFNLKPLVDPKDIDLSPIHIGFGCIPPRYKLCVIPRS
# [5] = molecular target: T3, Alpha-1B adrenergic receptor (Rattus norvegicus, UniProt P15823); experiment: DRUGMATRIX: Alpha-1B adrenergic receptor radioligand binding (ligand: prazosin); format: cell membranes, Wistar, Liver, Membrane; conditions: Not Active = under 50% inhibition at 10 µM
# T3 sequence (P15823 whole entry): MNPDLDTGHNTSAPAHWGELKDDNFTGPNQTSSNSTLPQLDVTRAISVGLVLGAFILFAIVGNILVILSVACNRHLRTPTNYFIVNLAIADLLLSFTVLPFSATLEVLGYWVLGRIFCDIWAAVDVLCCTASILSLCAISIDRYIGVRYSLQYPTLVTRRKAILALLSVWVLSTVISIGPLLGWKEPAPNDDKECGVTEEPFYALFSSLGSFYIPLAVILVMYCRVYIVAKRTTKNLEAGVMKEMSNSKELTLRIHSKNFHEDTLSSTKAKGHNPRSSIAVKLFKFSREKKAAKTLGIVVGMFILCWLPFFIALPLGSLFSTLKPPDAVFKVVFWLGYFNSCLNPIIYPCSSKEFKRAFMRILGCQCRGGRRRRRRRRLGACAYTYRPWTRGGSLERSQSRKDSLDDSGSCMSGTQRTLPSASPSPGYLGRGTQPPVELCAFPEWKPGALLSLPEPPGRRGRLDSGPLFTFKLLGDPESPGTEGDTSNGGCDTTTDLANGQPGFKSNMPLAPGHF
# [6] = molecular target: Sodium-dependent noradrenaline transporter (Homo sapiens, UniProt P23975); experiment: DRUGMATRIX: Norepinephrine Transporter radioligand binding (ligand: [125I] RTI-55); format: cell membranes, MDCK, Membrane; conditions: mdck; Not Active = under 50% inhibition at 10 µM
# Sodium-dependent noradrenaline transporter, sequence (P23975 whole entry): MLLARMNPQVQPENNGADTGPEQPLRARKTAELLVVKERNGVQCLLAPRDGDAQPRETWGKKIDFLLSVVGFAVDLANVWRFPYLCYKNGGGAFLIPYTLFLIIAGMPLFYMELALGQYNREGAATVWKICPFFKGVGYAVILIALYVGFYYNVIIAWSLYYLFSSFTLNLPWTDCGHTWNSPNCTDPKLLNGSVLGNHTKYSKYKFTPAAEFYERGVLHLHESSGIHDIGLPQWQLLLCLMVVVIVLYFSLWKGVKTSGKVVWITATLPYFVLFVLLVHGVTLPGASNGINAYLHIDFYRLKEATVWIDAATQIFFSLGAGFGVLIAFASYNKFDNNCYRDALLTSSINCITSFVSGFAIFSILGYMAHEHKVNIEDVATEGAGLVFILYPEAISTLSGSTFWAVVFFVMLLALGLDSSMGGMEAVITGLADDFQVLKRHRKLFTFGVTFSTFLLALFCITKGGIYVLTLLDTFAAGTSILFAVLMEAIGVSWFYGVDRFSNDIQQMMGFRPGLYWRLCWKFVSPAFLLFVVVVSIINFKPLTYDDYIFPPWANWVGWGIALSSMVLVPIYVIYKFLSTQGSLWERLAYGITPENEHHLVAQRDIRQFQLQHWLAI
Molecule,IC50 [1],IC50 [2],IC50 ([3]; hek293),IC50 [4],Ki [4],IC50 [5],IC50 [6],Ki [3],IC50 ([3]; read-out: IC50),IC50 ([1]; read-out: IC50),Ki ([1]; read-out: Ki),Ki [1],Ki [2],Ki [5],Ki [6],IC50 ([5]; read-out: IC50),Ki ([5]; read-out: Ki)
CCOc1cc(N)c(Cl)cc1C(=O)NCC1CN(Cc2ccc(F)cc2)CCO1 (stereo not given) [MOSAPRIDE],Not Active,Not Active,Not Active,Not Active,Not Active,Not Active,Not Active,,,,,,,,,,
Nc1nc(N)c2nc(-c3ccccc3)c(N)nc2n1,Not Active,Not Active,Not Active,Not Active,Not Active,Not Active,Not Active,,,,,,,,,,
Cc1ccnc(NS(=O)(=O)c2ccc(N)cc2)n1 [SULFAMERAZINE],Not Active,Not Active,Not Active,Not Active,Not Active,Not Active,Not Active,,,,,,,,,,
CCN1CCCC1CNC(=O)c1cc(S(N)(=O)=O)ccc1OC (stereo not given) [SULPIRIDE],Not Active,Not Active,Not Active,Not Active,Not Active,Not Active,Not Active,,,,,,,,,,
O=C1CC[C@@]2(O)[C@H]3Cc4ccc(O)c5c4[C@@]2(CCN3CC2CC2)[C@H]1O5 [NALTREXONE],Not Active,Not Active,,Not Active,Not Active,Not Active,Not Active,,,,,,,,,,
CCN(CC)C(=S)SSC(=S)N(CC)CC,Not Active,Not Active,,Not Active,Not Active,Not Active,,2440 nM,6.1 µM,,,,,,,,
O=C(OC[C@H]1O[C@@H](OC(=O)c2cc(O)c(O)c(OC(=O)c3cc(O)c(O)c(O)c3)c2)[C@H](OC(=O)c2cc(O)c(O)c(OC(=O)c3cc(O)c(O)c(O)c3)c2)[C@@H](OC(=O)c2cc(O)c(O)c(OC(=O)c3cc(O)c(O)c(O)c3)c2)[C@@H]1OC(=O)c1cc(O)c(O)c(OC(=O)c2cc(O)c(O)c(O)c2)c1)c1cc(O)c(O)c(OC(=O)c2cc(O)c(O)c(O)c2)c1 [TANNIC ACID],Not Active,Not Active,Not Active,Not Active,Not Active,Not Active,Not Active,,,,,,,,,,
C=CCc1ccc2c(c1)OCO2 [SAFROLE],Not Active,Not Active,Not Active,Not Active,Not Active,Not Active,Not Active,,,,,,,,,,
CC[C@@]1(O)C(=O)OCc2c1cc1n(c2=O)Cc2cc3c(CN(C)C)c(O)ccc3nc2-1 [TOPOTECAN],Not Active,Not Active,Not Active,Not Active,Not Active,Not Active,Not Active,,,,,,,,,,
CC1(C)[C@H](C(=O)O)N2C(=O)C[C@H]2S1(=O)=O [SULBACTAM],Not Active,Not Active,Not Active,Not Active,Not Active,Not Active,Not Active,,,,,,,,,,
C[C@]12CCC(=O)C[C@@H]1CC[C@@H]1[C@@H]2CC[C@]2(C)[C@@H](O)CC[C@@H]12 [STANOLONE],,Not Active,Not Active,Not Active,Not Active,Not Active,Not Active,,,1250 nM,163 nM,,,,,,
Cc1cccc(C)c1NC(=O)C(C)N (stereo not given) [TOCAINIDE],,Not Active,Not Active,Not Active,Not Active,Not Active,Not Active,,,,,,,,,,
LEAD(IV) ACETATE,Not Active,Not Active,,Not Active,Not Active,Not Active,Not Active,,,,,Not Active,Not Active,Not Active,Not Active,,
CS(=O)(=O)c1ccc(C2=C(c3ccccc3)C(=O)OC2)cc1 [ROFECOXIB],Not Active,Not Active,Not Active,Not Active,Not Active,Not Active,Not Active,,,,,,,,,,
COC(=O)Nc1nc2ccc(C(=O)c3ccccc3)cc2[nH]1 [MEBENDAZOLE],Not Active,Not Active,Not Active,Not Active,Not Active,Not Active,Not Active,,,,,,,,,,
CC(N)C12CC3CC(CC(C3)C1)C2 (stereo not given) [RIMANTADINE],Not Active,Not Active,Not Active,Not Active,Not Active,Not Active,Not Active,,,,,,,,,,
CN1C[C@H](CNC(=O)OCc2ccccc2)C[C@@H]2c3cccc4c3c(cn4C)C[C@H]21 [METERGOLINE],Not Active,Not Active,Not Active,Not Active,Not Active,,,,,,,,,,,262 nM,145 nM
CO[C@@H]1[C@@H](OC)[C@H](C)[C@@](O)(CC(=O)O)O[C@H]1[C@H](C)[C@H]1O[C@@]2(CC[C@@](C)([C@H]3CC[C@@](C)([C@@H]4O[C@@H]([C@H]5O[C@](C)(O)[C@H](C)C[C@@H]5C)C[C@@H]4O[C@@H]4C[C@H](OC)[C@@H](OC)[C@H](C)O4)O3)O2)C[C@H](O)[C@H]1C.N [MADURAMICIN],Not Active,Not Active,Not Active,Not Active,Not Active,,Not Active,,,,,,,,,,
C1CCN2C[C@@H]3C[C@@H](CN4CCCC[C@@H]34)[C@H]2C1 [SPARTEINE],Not Active,Not Active,,,,Not Active,Not Active,,,,,,,,,,
O=[As][O-].[Na+] [SODIUM ARSENITE],Not Active,Not Active,,Not Active,Not Active,Not Active,Not Active,,,,,,,,,,
Cc1ccc(S(=O)(=O)NC(=O)NN2CCCCCC2)cc1 [TOLAZAMIDE],Not Active,Not Active,Not Active,,,Not Active,Not Active,,,,,,,,,,
Cc1cc2c(s1)Nc1ccccc1N=C2N1CCN(C)CC1 [OLANZAPINE],Not Active,Not Active,Not Active,Not Active,Not Active,,Not Active,,,,,,,,,,
CCC(C)(C)C(=O)O[C@H]1C[C@@H](C)C=C2C=C[C@H](C)[C@H](CC[C@@H]3C[C@@H](O)CC(=O)O3)[C@H]21 [SIMVASTATIN],Not Active,Not Active,Not Active,,,Not Active,,,,,,,,,,,
C[N+]1(C)[C@@H]2C[C@@H](OC(=O)[C@H](CO)c3ccccc3)C[C@H]1[C@@H]1O[C@@H]12.[Br-] [METHSCOPOLAMINE BROMIDE],Not Active,Not Active,,Not Active,Not Active,Not Active,,,,,,,,,,,
CNCCCC12CCC(c3ccccc31)c1ccccc12 [MAPROTILINE],Not Active,Not Active,Not Active,,,,,,,,,,,,,,
CN(C)CCC=C1c2ccccc2COc2ccccc21 [DOXEPIN],Not Active,Not Active,Not Active,Not Active,Not Active,,,,,,,,,,,,
